Active and inactive are the calls of the source. The calls are words filed in the database; no cut-off is given here.
Experiments:
[1] = target: 3',5'-cyclic-AMP phosphodiesterase 4B (Homo sapiens, UniProt Q07343); assay: Inhibition of PDE4B
[2] = target: cGMP-inhibited 3',5'-cyclic phosphodiesterase 3A (Homo sapiens, UniProt Q14432); assay: Inhibition of PDE3A
Chain of cGMP-inhibited 3',5'-cyclic phosphodiesterase 3A (Q14432 whole entry): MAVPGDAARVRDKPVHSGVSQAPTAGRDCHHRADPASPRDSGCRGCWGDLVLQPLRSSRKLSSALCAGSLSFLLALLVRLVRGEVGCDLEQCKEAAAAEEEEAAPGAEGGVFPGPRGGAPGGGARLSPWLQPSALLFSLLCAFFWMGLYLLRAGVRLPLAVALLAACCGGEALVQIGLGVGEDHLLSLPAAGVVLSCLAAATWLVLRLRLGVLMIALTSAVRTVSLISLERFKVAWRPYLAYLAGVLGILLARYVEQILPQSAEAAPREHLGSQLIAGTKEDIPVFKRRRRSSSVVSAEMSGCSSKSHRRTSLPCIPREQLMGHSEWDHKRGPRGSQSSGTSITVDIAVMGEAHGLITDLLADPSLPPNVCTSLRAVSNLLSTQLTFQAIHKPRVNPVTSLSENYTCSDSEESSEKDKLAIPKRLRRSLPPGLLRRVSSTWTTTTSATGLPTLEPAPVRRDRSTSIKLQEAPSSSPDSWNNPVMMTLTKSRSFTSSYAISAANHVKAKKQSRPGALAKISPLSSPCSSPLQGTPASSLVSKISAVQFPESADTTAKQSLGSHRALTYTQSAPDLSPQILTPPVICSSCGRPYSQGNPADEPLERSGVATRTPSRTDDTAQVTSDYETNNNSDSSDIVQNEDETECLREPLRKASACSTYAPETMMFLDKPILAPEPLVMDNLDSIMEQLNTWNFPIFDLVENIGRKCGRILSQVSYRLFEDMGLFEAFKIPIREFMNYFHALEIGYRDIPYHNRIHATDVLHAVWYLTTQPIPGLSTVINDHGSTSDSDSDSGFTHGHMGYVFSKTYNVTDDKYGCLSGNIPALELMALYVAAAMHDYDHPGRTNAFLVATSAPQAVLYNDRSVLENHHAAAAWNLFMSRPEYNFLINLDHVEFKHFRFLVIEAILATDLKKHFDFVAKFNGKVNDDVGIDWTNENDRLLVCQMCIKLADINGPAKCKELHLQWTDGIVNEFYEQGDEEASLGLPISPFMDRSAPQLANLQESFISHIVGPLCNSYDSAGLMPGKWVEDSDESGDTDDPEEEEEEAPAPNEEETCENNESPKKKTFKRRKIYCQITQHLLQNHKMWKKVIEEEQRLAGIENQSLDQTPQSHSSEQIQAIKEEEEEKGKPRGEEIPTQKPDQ

Chain of 3',5'-cyclic-AMP phosphodiesterase 4B (Q07343 whole entry): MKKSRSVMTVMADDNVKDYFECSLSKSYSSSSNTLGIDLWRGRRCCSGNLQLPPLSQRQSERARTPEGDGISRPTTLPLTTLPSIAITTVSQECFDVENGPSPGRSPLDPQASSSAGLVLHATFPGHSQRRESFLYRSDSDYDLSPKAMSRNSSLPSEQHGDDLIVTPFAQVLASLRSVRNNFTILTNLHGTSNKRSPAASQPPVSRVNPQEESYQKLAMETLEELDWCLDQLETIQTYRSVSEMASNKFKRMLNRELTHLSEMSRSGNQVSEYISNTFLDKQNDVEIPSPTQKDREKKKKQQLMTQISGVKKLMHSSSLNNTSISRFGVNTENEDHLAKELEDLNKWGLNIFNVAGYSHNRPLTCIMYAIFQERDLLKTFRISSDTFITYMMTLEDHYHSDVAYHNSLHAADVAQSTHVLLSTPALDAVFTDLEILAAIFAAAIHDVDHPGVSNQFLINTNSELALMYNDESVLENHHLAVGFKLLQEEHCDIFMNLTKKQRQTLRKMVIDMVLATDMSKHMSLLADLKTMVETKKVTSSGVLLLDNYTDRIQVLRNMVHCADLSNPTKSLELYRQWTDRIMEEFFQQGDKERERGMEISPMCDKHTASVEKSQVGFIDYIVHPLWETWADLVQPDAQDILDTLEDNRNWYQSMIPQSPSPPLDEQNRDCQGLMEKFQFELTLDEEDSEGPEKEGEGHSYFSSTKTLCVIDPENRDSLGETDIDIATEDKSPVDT

SMILES	Activity [1]	IC50 [1]	IC50 [2]	Activity [2]
C=CCN1C(=O)/C(=C/c2ccc(OC)c(OC)c2)SC1=S	inactive			
COc1cc(/C=C2\SC(=S)NC2=O)ccc1O	inactive			
COc1ccc(/C=C2\SC(=S)N(C)C2=O)cc1OC	inactive			
COc1cc(/C=C2\SC(=S)NC2=O)ccc1OC1CCCC1		30.4 µM	28.5 µM	
COc1ccc(/C=C2\SC(=S)N(CC(=O)O)C2=O)cc1OC	inactive			
COc1ccc(/C=C2\SC(=S)N(CC(=O)O)C2=O)cc1OC1CCCC1		3.07 µM		inactive
COc1ccc(/C=C2\SC(=S)NC2=O)cc1O	inactive			
COc1ccc(/C=C2\SC(=S)N(C)C2=O)cc1OC1CCCC1		2.87 µM		inactive
COc1ccc(/C=C2\SC(=O)NC2=O)cc1OC1CCCC1		1.09 µM		inactive
CCN1C(=O)/C(=C/c2ccc(OC)c(OC)c2)SC1=S	inactive			
COc1ccc(/C=C2\SC(=S)NC2=O)cc1OC (stereo in doubt; 10a) [listing 1 of 2 here]		28.3 µM		
CCN1C(=O)/C(=C/c2ccc(OC)c(O)c2)SC1=S		11.2 µM		inactive
COc1ccc(/C=C2\SC(=S)NC2=O)cc1OC (stereo in doubt; 10a) [listing 2 of 2 here]				inactive
COc1ccc(/C=C2\SC(=O)N(Cc3ccccc3)C2=O)cc1OC1CCCC1	inactive			
CCOc1ccc(/C=C2\SC(=S)NC2=O)cc1OC		6.91 µM	9.46 µM	
CCOc1ccc(/C=C2\SC(=S)NC2=O)cc1OCC		6.51 µM	80 µM	
COc1ccc(/C=C2\SC(=S)NC2=O)cc1OC1CCCCC1		1.94 µM		inactive
O=C1NC(=S)S/C1=C\c1ccc2c(c1)OCO2	inactive			

SMILES	Activity [1]	IC50 [1]	IC50 [2]	Activity [2]
COc1cccc(/C=C2\SC(=S)NC2=O)c1OC		54.7 µM		
COc1ccc(/C=C2\SC(=O)NC2=O)cc1OC		14.1 µM		inactive
COc1ccc(/C=C2\SC(=S)NC2=O)cc1OC1CCCC1		0.89 µM	10.8 µM	
COc1cc(/C=C2\SC(=S)NC2=O)cc(OC)c1OC		64.8 µM		
COc1ccc(/C=C2\SC(=S)NC2=O)cc1OCc1ccccc1	inactive			
COc1ccc(/C=C2\SC(=N)NC2=O)cc1OC1CCCC1 [PSEUDOTHIOHYDANTOIN]		0.31 µM		inactive
CCN1C(=O)/C(=C/c2ccc(O)c(OC)c2)SC1=S		0.74 µM		inactive
COc1ccc(/C=C2\CCNC2=O)cc1OC1CCCC1		4.01 µM		inactive
COc1ccc(/C=C2\SC(=S)NC2=O)cc1OC (stereo in doubt; 2a)		17.9 µM	10.5 µM	
CCOc1ccc(/C=C2\SC(=S)NC2=O)cc1OC1CCCC1		1.85 µM	25 µM	
O=C1NC(=S)S/C1=C\c1ccc(O)c(O)c1	inactive			
C=CCOc1cc(/C=C2\SC(=S)NC2=O)ccc1OC		3.08 µM		inactive
C=CCN1C(=O)/C(=C/c2ccc(OC)c(OC3CCCC3)c2)SC1=S		4.13 µM		inactive
COc1ccc(/C=C2\SC(=S)NC2=O)cc1	inactive			
CCOc1cc(/C=C2\SC(=S)NC2=O)ccc1OC		5.3 µM	39.8 µM	
COc1cccc(/C=C2\SC(=S)NC2=O)c1	inactive			
COc1ccc(C2CNC(=O)C2)cc1OC1CCCC1 (stereo not drawn)				inactive

Reference: ChEMBL document CHEMBL1142363, “Rhodanine derivatives as novel inhibitors of PDE4” (Bioorg Med Chem Lett, 2008)
